Patent US12077503B2, “Substituted cyclic amides and their use as herbicides” (FMC CORPORATION, priority 2015, dated 2024)

What was measured:
Assay type in all cases: in vivo
[1] = tested on: giant foxtail (Setaria faberi); assay: Test G Post-Emergence Protocol; settings: Setaria faberi, post-emergence, 312 h
In short: (§1)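 Post-emergence herbicidal damage, scored visually 0–100 at 13 days. Application at 15.625, 62.5 or 250 g/ha onto 8-day-old plants grown under glasshouse control.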

[2] = tested on: velvetleaf (Abutilon theophrasti); assay: Test G Post-Emergence Protocol; settings: Abutilon theophrasti, post-emergence, 312 h
In short: as §1

[3] = tested on: redroot pigweed (Amaranthus retroflexus); assay: Test G Post-Emergence Protocol; settings: Amaranthus retroflexus, post-emergence, 312 h
In short: as §1

[4] = tested on: barnyardgrass (Echinochloa crus-galli); assay: Test G Post-Emergence Protocol; settings: Echinochloa crus-galli, post-emergence, 312 h
In short: as §1

[5] = tested on: ivy-leaved morning glory (Ipomoea hederacea); assay: Test G Post-Emergence Protocol; settings: Ipomoea, post-emergence, 312 h
In short: as §1

[6] = tested on: corn (Zea mays); assay: Test G Post-Emergence Protocol; settings: Zea mays, post-emergence, 312 h
In short: as §1

[7] = tested on: giant foxtail (Setaria faberi); assay: Test G Pre-Emergence Protocol; settings: Setaria faberi, pre-emergence, 312 h, evaluated after 13 days
In short: (§2)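 Seeds were sown in standard soil and kept one day in a glasshouse (24/16° C day/night, 14 h light, 65% humidity), then sprayed with compound in acetone/water (50:50) containing 0.5% Tween 20 at 15.625, 62.5 or 250 g/ha. Damage was scored after 13 days (0 = none, 100 = total).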

[8] = tested on: velvetleaf (Abutilon theophrasti); assay: Test G Pre-Emergence Protocol; settings: Abutilon theophrasti, pre-emergence, 312 h, evaluated after 13 days
In short: as §2

[9] = tested on: redroot pigweed (Amaranthus retroflexus); assay: Test G Pre-Emergence Protocol; settings: Amaranthus retroflexus, pre-emergence, 312 h, evaluated after 13 days
In short: as §2

[10] = tested on: barnyardgrass (Echinochloa crus-galli); assay: Test G Pre-Emergence Protocol; settings: Echinochloa crus-galli, pre-emergence, 312 h, evaluated after 13 days
In short: as §2

[11] = tested on: ivy-leaved morning glory (Ipomoea hederacea); assay: Test G Pre-Emergence Protocol; settings: Ipomoea, pre-emergence, 312 h, evaluated after 13 days
In short: as §2

[12] = tested on: corn (Zea mays); assay: Test G Pre-Emergence Protocol; settings: Zea mays, pre-emergence, 312 h, evaluated after 13 days
In short: as §2

Cc1onc(NC(=O)[C@@H]2C(=O)N(C)C[C@H]2c2ccc(C(F)(F)F)cc2)c1Cl (racemic) [Compound 1580]
0%: pest or weed control at 15.625 g/ha ([1]; 15.625 g ai/ha, evaluated after 13 days (100=total damage to plant; 0=no damage to plant), read-out: Foxtail, Giant damage rating) | pest or weed control at 62.5 g/ha ([1]; 62.5 g ai/ha, evaluated after 13 days, read-out: Foxtail, Giant damage rating (100=total damage to plant; 0=no damage to plant)) | pest or weed control at 250 g/ha ([1]; 250 g ai/ha, evaluated after 13 days, read-out: damage to plant, Foxtail, Giant (100=total damage to plant; 0=no damage to plant)) | pest or weed control at 15.625 g/ha ([2]; 15.625 g ai/ha, evaluated after 13 days (100=total damage to plant; 0=no damage to plant), read-out: Velvetleaf damage rating) | pest or weed control at 62.5 g/ha ([2]; 62.5 g ai/ha, evaluated after 13 days, read-out: Velvetleaf damage rating (100=total damage to plant; 0=no damage to plant)) | pest or weed control at 250 g/ha ([2]; 250 g ai/ha, evaluated after 13 days, read-out: damage to plant, Velvetleaf (100=total damage to plant; 0=no damage to plant)) | pest or weed control at 15.625 g/ha ([3]; 15.625 g ai/ha, evaluated after 13 days (100=total damage to plant; 0=no damage to plant), read-out: Pigweed, Redroot damage rating) | pest or weed control at 62.5 g/ha ([3]; 62.5 g ai/ha, evaluated after 13 days, read-out: Pigweed, Redroot damage rating (100=total damage to plant; 0=no damage to plant)) | pest or weed control at 250 g/ha ([3]; 250 g ai/ha, evaluated after 13 days, read-out: damage to plant, Pigweed, Redroot (100=total damage to plant; 0=no damage to plant)) | pest or weed control at 15.625 g/ha ([4]; 15.625 g ai/ha, evaluated after 13 days (100=total damage to plant; 0=no damage to plant), read-out: Barnyardgrass damage rating) | pest or weed control at 62.5 g/ha ([4]; 62.5 g ai/ha, evaluated after 13 days, read-out: Barnyardgrass damage rating (100=total damage to plant; 0=no damage to plant)) | pest or weed control at 250 g/ha ([4]; 250 g ai/ha, evaluated after 13 days, read-out: damage to plant, Barnyardgrass (100=total damage to plant; 0=no damage to plant)) | pest or weed control at 15.625 g/ha ([5]; 15.625 g ai/ha, evaluated after 13 days (100=total damage to plant; 0=no damage to plant), read-out: Morningglory, Ivy-leaved damage rating) | pest or weed control at 62.5 g/ha ([5]; 62.5 g ai/ha, evaluated after 13 days, read-out: Morningglory, Ivy-leaved damage rating (100=total damage to plant; 0=no damage to plant)) | pest or weed control at 250 g/ha ([5]; 250 g ai/ha, evaluated after 13 days, read-out: damage to plant, Morningglory, Ivy-leaved (100=total damage to plant; 0=no damage to plant)) | plant injury at 15.625 g/ha ([6]; 15.625 g ai/ha, evaluated after 13 days (100=total damage to plant; 0=no damage to plant), read-out: Corn damage rating) | plant injury at 62.5 g/ha ([6]; 62.5 g ai/ha, evaluated after 13 days, read-out: Corn damage rating (100=total damage to plant; 0=no damage to plant)) | plant injury at 250 g/ha ([6]; 250 g ai/ha, evaluated after 13 days, read-out: damage to plant, Corn (100=total damage to plant; 0=no damage to plant)) | pest or weed control at 15.625 g/ha ([7]; 15.625 g ai/ha, read-out: Foxtail, Giant damage rating (100=total damage to plant; 0=no damage to plant)) | pest or weed control at 62.5 g/ha ([7]; 62.5 g ai/ha, 100=total damage to plant, 0=no damage to plant, read-out: plant damage rating, Foxtail, Giant) | pest or weed control at 250 g/ha ([7]; 250 g ai/ha, read-out: Foxtail, Giant damage rating (100=total damage to plant; 0=no damage to plant)) | pest or weed control at 15.625 g/ha ([8]; 15.625 g ai/ha, read-out: Velvetleaf damage rating (100=total damage to plant; 0=no damage to plant)) | pest or weed control at 62.5 g/ha ([8]; 62.5 g ai/ha, 100=total damage to plant, 0=no damage to plant, read-out: plant damage rating, Velvetleaf) | pest or weed control at 250 g/ha ([8]; 250 g ai/ha, read-out: Velvetleaf damage rating (100=total damage to plant; 0=no damage to plant)) | pest or weed control at 15.625 g/ha ([9]; 15.625 g ai/ha, read-out: Pigweed, Redroot damage rating (100=total damage to plant; 0=no damage to plant)) | pest or weed control at 62.5 g/ha ([9]; 62.5 g ai/ha, 100=total damage to plant, 0=no damage to plant, read-out: plant damage rating, Pigweed, Redroot) | pest or weed control at 250 g/ha ([9]; 250 g ai/ha, read-out: Pigweed, Redroot damage rating (100=total damage to plant; 0=no damage to plant)) | pest or weed control at 15.625 g/ha ([10]; 15.625 g ai/ha, read-out: Barnyard grass damage rating (100=total damage to plant; 0=no damage to plant)) | pest or weed control at 62.5 g/ha ([10]; 62.5 g ai/ha, 100=total damage to plant, 0=no damage to plant, read-out: plant damage rating, Barnyardgrass) | pest or weed control at 250 g/ha ([10]; 250 g ai/ha, read-out: Barnyardgrass damage rating (100=total damage to plant; 0=no damage to plant)) | pest or weed control at 15.625 g/ha ([11]; 15.625 g ai/ha, read-out: Morning-glory, Ivy-leaved damage rating (100=total damage to plant; 0=no damage to plant)) | pest or weed control at 62.5 g/ha ([11]; 62.5 g ai/ha, 100=total damage to plant, 0=no damage to plant, read-out: plant damage rating, Morningglory, Ivy-leaved) | pest or weed control at 250 g/ha ([11]; 250 g ai/ha, read-out: Morningglory, Ivy-leaved damage rating (100=total damage to plant; 0=no damage to plant)) | plant injury at 15.625 g/ha ([12]; 15.625 g ai/ha, read-out: Corn damage rating (100=total damage to plant; 0=no damage to plant)) | plant injury at 62.5 g/ha ([12]; 62.5 g ai/ha, 100=total damage to plant, 0=no damage to plant, read-out: plant damage rating, Corn) | plant injury at 250 g/ha ([12]; 250 g ai/ha, read-out: Corn damage rating (100=total damage to plant; 0=no damage to plant))
